We go through 17 compounds from ChEMBL document CHEMBL4229471, “Antiprotozoal and cysteine proteases inhibitory activity of dipeptidyl enoates” (Bioorg Med Chem, 2018).

For data set [1], the target named is T1, Cathepsin B (Homo sapiens, UniProt P07858). The experiment in a line: Inhibition of human cathepsin B at 20 uM using Cbz-Phe-Arg-AMC as substrate relative to control.
The target in data set [2] is Rhodesain (Trypanosoma brucei rhodesiense) (UniProt Q95PM0). The experiment in a line: Inhibition of Trypanosoma brucei rhodesiense rhodesain at 20 uM using Cbz-Phe-Arg-AMC as substrate measured for 30 mins by fluorescence method relative to control.
Chain of Rhodesain (Trypanosoma brucei rhodesiense) (Q95PM0 1-450): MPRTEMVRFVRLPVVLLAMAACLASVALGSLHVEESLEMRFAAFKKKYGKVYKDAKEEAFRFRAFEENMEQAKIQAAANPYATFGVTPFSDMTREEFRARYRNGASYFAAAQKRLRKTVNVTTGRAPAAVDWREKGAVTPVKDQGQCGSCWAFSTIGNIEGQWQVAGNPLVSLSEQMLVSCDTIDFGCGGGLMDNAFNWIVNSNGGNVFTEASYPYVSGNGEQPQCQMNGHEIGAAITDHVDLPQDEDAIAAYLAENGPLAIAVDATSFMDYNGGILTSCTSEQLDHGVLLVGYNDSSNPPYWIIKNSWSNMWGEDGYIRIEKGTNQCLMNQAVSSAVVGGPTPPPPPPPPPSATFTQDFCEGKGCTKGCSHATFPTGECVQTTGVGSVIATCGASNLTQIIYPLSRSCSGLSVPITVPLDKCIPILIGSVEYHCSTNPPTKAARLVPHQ
Data set [3] addresses T2, Falcipain 2 (Plasmodium falciparum) (UniProt Q9N6S8).
T2 sequence (whole entry): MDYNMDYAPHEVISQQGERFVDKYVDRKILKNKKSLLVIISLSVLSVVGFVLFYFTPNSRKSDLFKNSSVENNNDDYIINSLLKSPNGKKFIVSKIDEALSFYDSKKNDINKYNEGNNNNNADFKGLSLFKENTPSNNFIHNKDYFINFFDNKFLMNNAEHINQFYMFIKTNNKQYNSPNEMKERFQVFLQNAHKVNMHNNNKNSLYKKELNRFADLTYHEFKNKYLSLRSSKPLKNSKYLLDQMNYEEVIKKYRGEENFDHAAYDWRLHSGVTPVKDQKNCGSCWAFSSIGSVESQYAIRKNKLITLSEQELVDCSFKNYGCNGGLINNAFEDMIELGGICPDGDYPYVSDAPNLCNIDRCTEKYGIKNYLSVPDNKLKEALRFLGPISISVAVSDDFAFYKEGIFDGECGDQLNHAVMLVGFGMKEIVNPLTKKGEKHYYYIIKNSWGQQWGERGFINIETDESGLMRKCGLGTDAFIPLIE
The experiment in a line: Inhibition of Plasmodium falciparum falcipain-2 at 20 uM using Cbz-Phe-Arg-AMC as substrate measured for 15 mins by spectrofluorimetric method relative to control.

Data set [4] concerns the target T3, Procathepsin L (Homo sapiens, UniProt P07711). Put plainly: Inhibition of human cathepsin L at 20 uM using Cbz-Phe-Arg-AMC as substrate relative to control.
Target sequence in this assay (P07711 114-333 limits assumed): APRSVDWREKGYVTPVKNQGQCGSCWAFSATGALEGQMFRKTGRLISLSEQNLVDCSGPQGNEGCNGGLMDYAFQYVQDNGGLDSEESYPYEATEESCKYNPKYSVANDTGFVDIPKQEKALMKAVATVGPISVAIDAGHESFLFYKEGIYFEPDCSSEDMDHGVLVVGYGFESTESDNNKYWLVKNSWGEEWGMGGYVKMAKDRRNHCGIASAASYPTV
The next data set deals with Cruzipain (Trypanosoma cruzi, UniProt P25779). Put plainly: Inhibition of Trypanosoma cruzi cruzain.
Chain of Cruzipain (P25779 whole entry): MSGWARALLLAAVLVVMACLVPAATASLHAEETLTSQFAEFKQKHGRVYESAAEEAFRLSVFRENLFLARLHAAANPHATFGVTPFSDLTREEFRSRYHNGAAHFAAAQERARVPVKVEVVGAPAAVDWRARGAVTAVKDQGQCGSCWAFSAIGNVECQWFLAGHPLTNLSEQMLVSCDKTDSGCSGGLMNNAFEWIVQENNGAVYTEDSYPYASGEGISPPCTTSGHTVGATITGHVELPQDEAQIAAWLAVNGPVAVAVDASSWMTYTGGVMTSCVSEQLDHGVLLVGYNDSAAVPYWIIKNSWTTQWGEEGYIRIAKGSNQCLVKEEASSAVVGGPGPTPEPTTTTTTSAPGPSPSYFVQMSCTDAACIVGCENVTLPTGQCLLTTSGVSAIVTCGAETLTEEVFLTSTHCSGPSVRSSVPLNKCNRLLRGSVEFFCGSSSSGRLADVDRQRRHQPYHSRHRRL
The target of data set [5] is Cruzipain (Trypanosoma cruzi) (UniProt P25779). Put plainly: Inhibition of Trypanosoma cruzi cruzain assessed as second-order rate constant.
Chain of Cruzipain (Trypanosoma cruzi) (P25779 123-467 limits assumed): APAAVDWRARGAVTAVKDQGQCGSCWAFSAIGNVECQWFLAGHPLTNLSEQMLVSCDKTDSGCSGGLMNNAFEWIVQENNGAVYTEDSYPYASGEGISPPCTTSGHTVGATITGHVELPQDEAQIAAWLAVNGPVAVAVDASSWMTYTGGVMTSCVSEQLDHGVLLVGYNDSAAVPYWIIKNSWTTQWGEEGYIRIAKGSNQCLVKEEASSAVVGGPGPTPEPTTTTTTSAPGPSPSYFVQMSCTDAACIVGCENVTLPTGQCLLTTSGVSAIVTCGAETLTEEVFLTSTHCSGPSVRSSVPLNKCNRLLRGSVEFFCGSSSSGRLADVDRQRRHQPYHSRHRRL
A short description of data set [6]: Cytotoxicity against human HepG2 cells assessed as cell viability at 1 uM measured after 24 hrs by spectrophotometric method relative to control. As to conditions: read-out: Activity. The data set is classed as cell-based.
Data set [7] has as its target T3, Procathepsin L. Put plainly: Inhibition of human cathepsin L assessed as second order rate constant using Cbz-Phe-Arg-AMC as substrate.
Target sequence in this assay (P07711 114-333 limits assumed): as the sequence (P07711 114-333 limits assumed) above
For data set [8], the target named is T1, Cathepsin B. The experiment in a line: Inhibition of human cathepsin B assessed as second order rate constant using Cbz-Phe-Arg-AMC as substrate.
Data set [9] has as its target T3, Procathepsin L. The experiment in a line: Inhibition of human cathepsin L using Cbz-Phe-Arg-AMC as substrate.
Target sequence in this assay (P07711 whole entry): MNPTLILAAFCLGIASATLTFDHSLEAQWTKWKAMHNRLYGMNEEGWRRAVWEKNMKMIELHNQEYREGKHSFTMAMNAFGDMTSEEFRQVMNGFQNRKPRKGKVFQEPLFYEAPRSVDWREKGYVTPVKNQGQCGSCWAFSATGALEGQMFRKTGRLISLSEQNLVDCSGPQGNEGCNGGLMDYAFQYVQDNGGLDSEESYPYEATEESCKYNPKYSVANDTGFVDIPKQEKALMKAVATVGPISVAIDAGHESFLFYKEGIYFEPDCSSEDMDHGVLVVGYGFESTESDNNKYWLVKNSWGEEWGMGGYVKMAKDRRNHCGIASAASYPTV
Data set [10] has as its target T1, Cathepsin B. The experiment in a line: Inhibition of human cathepsin B using Cbz-Phe-Arg-AMC as substrate.
The target in a further data set is Rhodesain (Trypanosoma brucei rhodesiense, UniProt Q95PM0). Put plainly: Inhibition of Trypanosoma brucei rhodesiense rhodesain using Cbz-Phe-Arg-AMC as substrate measured for 30 mins by fluorescence method.
Chain of Rhodesain (Q95PM0 whole entry): as the sequence (Q95PM0 1-450) above
The subject of another data set is Plasmodium falciparum. The experiment in a line: Antimalarial activity against erythrocytic stage of synchronized Plasmodium falciparum Dd2 after 48 hrs by Picogreen dye based fluorescence assay. The format is functional, organism-based. The note with it: Dd2, 48 h.
The target of data set [11] is Rhodesain (Trypanosoma brucei rhodesiense) (UniProt Q95PM0). The experiment in a line: Inhibition of Trypanosoma brucei rhodesiense rhodesain assessed as second-order rate constant using Cbz-Phe-Arg-AMC as substrate measured for 30 mins by fluorescence method.
Data set [12] addresses Cruzipain (Trypanosoma cruzi) (UniProt P25779). The experiment in a line: Inhibition of Trypanosoma cruzi cruzain at 20 uM relative to control.
Data set [13] deals with T2, Falcipain 2 (Plasmodium falciparum). The experiment in a line: Inhibition of Plasmodium falciparum falcipain-2 assessed as second-order rate constant using Cbz-Phe-Arg-AMC as substrate measured for 15 mins by spectrofluorimetric method.
Another data set concerns the target T4, Falcipain 2 (Plasmodium falciparum, UniProt Q9N6S8).
T4 sequence (Q9N6S8 whole entry): T2 sequence (whole entry)
Put plainly: Inhibition of Plasmodium falciparum falcipain-2 using Cbz-Phe-Arg-AMC as substrate measured for 15 mins by spectrofluorimetric method.

Broadly, the inhibition is the drop in the measured response relative to a control, in per cent. Low readings indicate a response near the control, high ones a response far below the control. Consider `CCOC(=O)/C=C/[C@H](O)[C@H](CCc1ccccc1)C(=O)N[C@@H](CC(C)C)C(=O)OCc1ccccc1`, for which the inhibition against Cathepsin B [1] was found to be 17%; in data set [2], 2%; in data set [3] it was 5%; at Procathepsin L [4], 0%.

Usually IC50 stands for the concentration at which inhibition is half-maximal. Lower therefore signals greater potency. Regarding `CCOC(=O)/C=C/C(=O)[C@H](CCc1ccccc1)NC(=O)[C@H](CC(C)C)NC(=O)N1CCOCC1`, the IC50 on Cruzipain amounted to 0.34 µM; against Procathepsin L [9], 0.21 µM; against Cathepsin B [10], 0.14 µM; against Rhodesain, 0.14 µM; in the data set on Plasmodium falciparum, 17.7 µM. In addition, the K was 5600 M⁻¹ s⁻¹ in data set [5], 19600 M⁻¹ s⁻¹ at Procathepsin L [7], 31400 M⁻¹ s⁻¹ on Cathepsin B [8] and 120000 M⁻¹ s⁻¹ in data set [11]. In [6], the viability at 24 h, 1 µM came out at 100%. Besides, the inhibition (against Cathepsin B [1]; in [2]; against Procathepsin L [4]) was 100% each time.

`CCOC(=O)/C=C/[C@@H](O)[C@H](CCc1ccccc1)NC(=O)[C@H](Cc1ccccc1)NC(=O)N1CCOCC1`: the K was 3600 M⁻¹ s⁻¹ in [5], 1900 M⁻¹ s⁻¹ at Procathepsin L [7], 4190 to 4200 M⁻¹ s⁻¹ on Cathepsin B [8] and 36700 M⁻¹ s⁻¹ in [11]. For the same compound, the inhibition against Cathepsin B [1] was 100%; in data set [2], 99%; in data set [12], 95%; at Procathepsin L [4], 98%.

On to `CCOC(=O)/C=C/C(=O)[C@H](C)NC(=O)[C@H](CC(C)C)NC(=O)OCc1ccccc1`, for which the K in data set [5] came out at 14400 M⁻¹ s⁻¹; at Procathepsin L [7] it was 9800 M⁻¹ s⁻¹; on Cathepsin B [8] it was 85500 M⁻¹ s⁻¹; in data set [13], 12000 M⁻¹ s⁻¹; in [11], 14200 M⁻¹ s⁻¹. The inhibition on Cathepsin B [1] was 100%; in [2] it was 99%; in [3], 98%; in data set [12], 99%; on Procathepsin L [4] it was 99%. Moreover, the values for the IC50 on Procathepsin L [9] and on Falcipain 2 were 0.5 µM and 1.2 µM, respectively.

Regarding `CCOC(=O)/C=C/C(=O)[C@@H](CC(C)C)NC(=O)[C@H](Cc1ccccc1)NC(=O)OCc1ccccc1`, the IC50 against Cruzipain turned out to be 0.02 µM; against Procathepsin L [9], 0.01 µM; on Cathepsin B [10], 0.06 µM; on Rhodesain, 0.03 µM. Moreover, the K in data set [5] came to 312000 M⁻¹ s⁻¹; at Procathepsin L [7], 704000 M⁻¹ s⁻¹; on Cathepsin B [8] it was 117000 M⁻¹ s⁻¹; in [11] it was 1.53e+06 M⁻¹ s⁻¹. Moreover, the inhibition (on Cathepsin B [1]; in [2]; in [12]; against Procathepsin L [4]) was 100% each time.

`CCOC(=O)/C=C/[C@H](O)[C@H](CCc1ccccc1)C(=O)N[C@@H](Cc1ccccc1)C(=O)OC`: the inhibition at Cathepsin B [1] came to 0%; in [2], 4%; in [3], 9%; at Procathepsin L [4], 0%.

`CCOC(=O)/C=C/[C@@H](O)[C@H](CCc1ccccc1)NC(=O)[C@H](CC(C)C)NC(=O)OCc1ccccc1`: the inhibition was 10% on Cathepsin B [1]; 0% in data set [2]; 11% in data set [3]; 9% in data set [12]; 14% at Procathepsin L [4].

Turning to `CCOC(=O)/C=C/[C@H](O)[C@H](CCc1ccccc1)NC(=O)[C@H](Cc1ccccc1)NC(=O)OCc1ccccc1`, the inhibition on Cathepsin B [1] is 35%; in data set [2], 32%; in data set [3], 22%; in [12], 37%; on Procathepsin L [4], 58%. Further, the figures for the K on Procathepsin L [7] and at Cathepsin B [8] were 77 M⁻¹ s⁻¹ and 14 M⁻¹ s⁻¹, respectively. The results for the 50% inhibitory concentration (IC50) against Procathepsin L [9] and against Cathepsin B [10] were 47 µM and 52.6 µM, respectively.

On to `O=C(O)/C=C/[C@@H](O)[C@H](CCc1ccccc1)NC(=O)[C@H](Cc1ccccc1)NC(=O)OCc1ccccc1`, for which the inhibition against Cathepsin B [1] was 15%; in data set [2] it was 24%; in [3], 24%; in data set [12] it was 12%; against Procathepsin L [4], 47%. Moreover, the K turned out to be 882 M⁻¹ s⁻¹ on Procathepsin L [7] and 29 M⁻¹ s⁻¹ in data set [13]. This compound displayed a half-maximal inhibitory concentration (IC50) at Falcipain 2 of 75 µM.

Take `O=C(/C=C/[C@@H](O)[C@H](CCc1ccccc1)NC(=O)[C@H](Cc1ccccc1)NC(=O)OCc1ccccc1)NCc1ccccc1`: the inhibition against Cathepsin B [1] came out at 9%; in data set [2], 1%; in [12] it was 41%; at Procathepsin L [4], 17%.

In the case of `CCOC(=O)/C=C/C(=O)[C@H](CC(C)C)NC(=O)[C@H](Cc1ccccc1)NC(=O)OCc1ccccc1`, the IC50 against Cruzipain came to 0.02 µM; against Procathepsin L [9], 0.01 µM; on Cathepsin B [10], 0.05 µM; against Rhodesain, 0.02 µM; in the data set with Plasmodium falciparum, 14.9 µM. The K in data set [5] was 517000 M⁻¹ s⁻¹; at Procathepsin L [7], 759000 M⁻¹ s⁻¹; at Cathepsin B [8], 138000 M⁻¹ s⁻¹; in [11], 1.61e+06 M⁻¹ s⁻¹. In addition, the viability at 24 h, 1 µM in data set [6] was 100%. The inhibition (against Cathepsin B [1]; in [2]; in data set [12]; against Procathepsin L [4]) was 100% in each case.

For `CCOC(=O)/C=C/C(=O)[C@H](CC(C)C)NC(=O)[C@H](CC(C)C)NC(=O)N1CCOCC1`, the half-inhibitory concentration (IC50) against Cruzipain came to 0.2 µM; on Procathepsin L [9], 0.09 µM; against Cathepsin B [10], 0.09 µM; against Rhodesain, 0.11 µM. Further, the K in data set [5] worked out at 10600 M⁻¹ s⁻¹; at Procathepsin L [7], 52200 M⁻¹ s⁻¹; on Cathepsin B [8] it was 49500 M⁻¹ s⁻¹; in data set [11], 324000 M⁻¹ s⁻¹. For the same compound, the inhibition (at Cathepsin B [1]; in data set [2]; in data set [12]; on Procathepsin L [4]) was 100% throughout.

As to `CCOC(=O)/C=C/[C@@H](O)[C@H](CCc1ccccc1)NC(=O)[C@H](Cc1ccccc1)NC(=O)OCc1ccccc1`, the inhibition on Cathepsin B [1] amounted to 36%; in data set [2], 63%; in [3], 41%; in [12] it was 18%; against Procathepsin L [4] it was 57%. Further, the K is 1100 M⁻¹ s⁻¹ on Procathepsin L [7], 772 to 800 M⁻¹ s⁻¹ on Cathepsin B [8], 557 M⁻¹ s⁻¹ in [13] and 3200 to 3210 M⁻¹ s⁻¹ in [11]. At Falcipain 2, this compound registered an IC50 of 34.4 µM.

For the compound `CCOC(=O)/C=C/[C@H](O)[C@H](CCc1ccccc1)C(=O)N[C@@H](Cc1ccccc1)C(=O)OCc1ccccc1`, the inhibition was 25% against Cathepsin B [1], 6% in [2], 5% in [3] and 0% against Procathepsin L [4].

With `CCOC(=O)/C=C/[C@@H](O)[C@H](C)NC(=O)[C@H](Cc1ccccc1)NC(=O)OCc1ccccc1`, the inhibition against Cathepsin B [1] was determined as 26%; in data set [2], 63%; in data set [3] it was 41%; in data set [12], 30%; against Procathepsin L [4], 80%. Besides, the K on Procathepsin L [7] was 828 M⁻¹ s⁻¹; in data set [13], 2700 M⁻¹ s⁻¹; in data set [11], 11000 M⁻¹ s⁻¹. Further, the concentration for half-maximal inhibition (IC50) is 15.1 µM at Rhodesain and 26.8 µM at Falcipain 2.

For `CCOC(=O)/C=C/C(=O)[C@H](C)NC(=O)[C@H](Cc1ccccc1)NC(=O)OCc1ccccc1`, the IC50 is 0.3 µM on Cruzipain, 0.08 µM against Procathepsin L [9] and 0.19 µM against Falcipain 2. Moreover, the K in data set [5] amounted to 140000 M⁻¹ s⁻¹; on Procathepsin L [7] it was 197000 M⁻¹ s⁻¹; at Cathepsin B [8], 47000 M⁻¹ s⁻¹; in [13] it was 28300 M⁻¹ s⁻¹; in data set [11], 6500 M⁻¹ s⁻¹. Further, the inhibition on Cathepsin B [1] was 100%; in data set [2] it was 100%; in data set [3] it was 99%; in data set [12] it was 100%; against Procathepsin L [4] it was 100%.

`CCOC(=O)/C=C/[C@H](O)[C@H](CCc1ccccc1)C(=O)N[C@@H](CC(C)C)C(=O)OC`: the inhibition at Cathepsin B [1] stood at 0%; in data set [2], 1%; in data set [3], 3%; on Procathepsin L [4], 0%.
